Data: patent EP0996429B1, “SOLID STATE SOLUTIONS AND DISPERSIONS OF POORLY WATER SOLUBLE DRUGS” (MERCK PATENT GmbH, priority 1997, dated 1999)

How the values were obtained:
[1] = Intrinsic dissolution of ibuprofen and HydroSolve-Ibuprofen in pH 7.2 buffer (paddle, absorbance 221 nm); type: physicochemical; conditions: 700 ml pH 7.2 buffer, paddle 50 rpm
Description: b. Procedures: • 1.Melt Gelucire and Pluronic, and dissolve ibuprofen into the mixture. • 2.Add the above solution into Sorbitol Instant while stirring. • 3.Cool down and pass through #20 mesh screen. c. Dissolution Test Using the Dissolution Test as follows: • 1.Measure 3.3 mg and 17.2 mg of ibuprofen (20 micron) and HydroSolve - Ibuprofen, respectively. • 2.Measure the dissolution profiles using 700 ml of pH 7.2 buffer and paddle at 50 rpm. • 3.Measure the absorbance at 221 nm.

[2] = Intrinsic dissolution of phenytoin and HydroSolve-phenytoin in DI water (paddle method, absorbance 220 nm); type: physicochemical; conditions: 900 ml D1 water, Paddle Method 50 rpm
Description: b. Procedures: • 1. Melt Gelucire and Pluronic together. • 2. Dissolve the phenytoin into above solution. • 3. Congeal this suspension and pass through #20 mesh. • 4. Measure about 32 and 110 mg of phenytoin and HydroSolve - phenytoin, respectively. • 5. Measure the dissolution profiles using 900 ml of D1 water and Paddle Method at 50 rpm. • 6. Using D1 water as blank, measure the absorbance at 220 nm of each sample which is filtered through 0.45 micron filters. • 7. Calculate the percent released by standard curve: Absorbance = 0.4072 x Concentration (mg/100ml) + 0.0227 [formula] c.

Dissolution profile (Results) ([1]; Time 10 min) | Dissolution profile (Results) ([1]; Time 20 min) | Dissolution profile (Results) ([1]; Time 30 min) | % Dissolved (%) ([2]; Time 0.5 h) | % Dissolved (%) ([2]; Time 1 h) | % Dissolved (%) ([2]; Time 2 h) | % Dissolved (%) ([2]; Time 3 h) | Compound
75.93 | 81.14 | 81.14 |  |  |  |  | CC(C)Cc1ccc(C(C)C(=O)O)cc1 (stereo not shown) [Ibuprofen]
 |  |  | 3.03 | 5.92 | 14.42 | 20.58 | O=C1NC(=O)C(c2ccccc2)(c2ccccc2)N1 [Phenytoin]
